Reference: article PMC12529164, “Design, Synthesis, Structure–Activity Relationships, and Preliminary Anticancer Properties of Menthol-Modified Coumarin Esters and 3,4-Dihydrocoumarin Derivatives” (ACS Omega, 2025)

Tested on: Danio rerio larvae
Assay: In vivo toxicity, maximum tolerated concentration
Conditions: zebrafish larvae, immersion from 96 hpf for 18 h (120 hpf), 5-150 μM tested
Protocol: Zebrafish (Danio rerio, strain AB) was maintained at the Experimental Medicine Center, Medical University of Lublin, Poland. Embryos and larvae up to 120 h postfertilization (hpf) were kept under generally accepted environmental conditions, i.e., in incubators at 28.5 °C, with 14/10 h light/dark cycles. The embryos of the Zebrafish were harvested after the natural reproduction process.
Three compounds showing low IC50 values determined on cancer lines in in vitro tests (2b, 4a) and compound 1a characterized by low cytotoxicity were used for in vivo tests. We also conducted research for coumarin. These compounds were dissolved in dimethyl sulfoxide (DMSO) (Sigma-Aldrich, St. Louis, MO, USA) and diluted in the zebrafish medium (pH 7.1–7.3; 5.0 mM NaCl, 0.17 mM KCl, 0.33 mM CaCl2, 0.33 mM MgSO4) to achieve a final DMSO concentration of 1% w/v. Twenty-four hpf zebrafish embryos were investigated under a light microscope, and […] fertilized embryos (n = 60) were selected and transferred into 48-well plates (5 embryos per well). Larvae were incubated in 1 mL of the zebrafish medium for up to 3 days after fertilization.
On the fourth day postfertilization (96 hpf), the larvae (10 individuals per group) were incubated in solutions of coumarin or its three derivatives (1a, 2b, 4a) at selected concentrations (5, 10, 25, 50, 75, 100, 150 μM), along with control solutions: negative control (zebrafish medium) and solvent control (1% DMSO in zebrafish medium). The maximum tolerated concentration (MTC) was calculated to assess the toxicity of the compounds and extracts. […] Larvae were individually inspected under a microscope for signs of acute locomotor dysfunction, including a weak reaction to light tail stimulation with a fine needle, disrupted posture, body deformities, protruding eyes, slowed or absent heartbeat, and mortality.

In the case of CC(C)[C@@H]1CC[C@@H](C)C[C@H]1OC(=O)C1C(=O)Oc2ccccc2C1P(=O)(c1ccccc1)c1ccccc1 (mixture of isomers) [Compound 4a, (1R,2S,5R)-2-Isopropyl-5-methylcyclohexyl-4-(diphenylphosphoryl)-2-oxochromane-3-carboxylate], the “maximum tolerated concentration (MTC)” value is reported as 75 µM.
